Laboratory results from ChEMBL document CHEMBL5260859, “Discovery and structure-activity relationship study of 2-piperazinyl-benzothiazole derivatives as potent and selective PPARδ agonists” (Bioorg Med Chem, 2023).

What was measured:
Mus musculus [1] = test: Antihypercholesterolemic activity against hApoB100/hCETP-dTg hypercholesterolemic mouse model assessed as serum HDL-C level at 3 mg/kg, po administered once daily for 8 days; type: functional; settings: time 8 day
[2] = target: T1, Peroxisome proliferator-activated receptor delta (Mus musculus, UniProt P35396); test: Agonist activity at Gal4-fused mouse PPAR-delta ligand binding domain expressed in CHO-K1 cells assessed as receptor transactivation incubated for 24 to 48 hrs by luciferase reporter gene assay; type: cell-based
T1 sequence (P35396 whole entry): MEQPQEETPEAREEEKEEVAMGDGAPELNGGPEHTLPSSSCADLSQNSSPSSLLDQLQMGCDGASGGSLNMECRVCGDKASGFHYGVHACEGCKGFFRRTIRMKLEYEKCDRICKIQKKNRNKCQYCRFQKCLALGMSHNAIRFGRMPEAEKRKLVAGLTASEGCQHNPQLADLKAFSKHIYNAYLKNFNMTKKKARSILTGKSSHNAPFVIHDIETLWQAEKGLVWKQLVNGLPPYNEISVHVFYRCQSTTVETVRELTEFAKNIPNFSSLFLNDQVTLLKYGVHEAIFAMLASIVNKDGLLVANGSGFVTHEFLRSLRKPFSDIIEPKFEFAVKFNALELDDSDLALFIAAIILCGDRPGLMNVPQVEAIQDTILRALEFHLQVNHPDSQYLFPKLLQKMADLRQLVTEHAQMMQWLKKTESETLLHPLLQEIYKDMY

[3] = target: T2, Peroxisome proliferator-activated receptor delta (Homo sapiens) (UniProt Q03181); test: Agonist activity at Gal4-fused human PPAR-delta ligand binding domain expressed in CHO-K1 cells assessed as receptor transactivation incubated for 24 to 48 hrs by luciferase reporter gene assay relative to control; type: cell-based; settings: time lower 24.0 hrs, time upper […]
T2 sequence (whole entry): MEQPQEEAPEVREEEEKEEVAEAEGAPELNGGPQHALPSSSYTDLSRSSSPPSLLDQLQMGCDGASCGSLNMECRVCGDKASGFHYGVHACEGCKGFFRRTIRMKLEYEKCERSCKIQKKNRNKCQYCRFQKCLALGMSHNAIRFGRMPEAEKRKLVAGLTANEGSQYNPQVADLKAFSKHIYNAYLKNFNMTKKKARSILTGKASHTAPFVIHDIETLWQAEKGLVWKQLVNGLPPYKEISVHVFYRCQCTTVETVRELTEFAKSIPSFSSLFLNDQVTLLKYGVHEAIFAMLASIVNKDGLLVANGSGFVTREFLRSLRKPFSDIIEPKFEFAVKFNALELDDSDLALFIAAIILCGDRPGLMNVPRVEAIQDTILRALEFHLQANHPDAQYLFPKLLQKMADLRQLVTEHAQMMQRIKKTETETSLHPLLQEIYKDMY

Mus musculus [4] = test: Antihypercholesterolemic activity against hApoB100/hCETP-dTg hypercholesterolemic mouse model assessed as serum non-HDL-C level at 3 mg/kg, po administered once daily for 8 days; type: functional; settings: time 8 day
[5] = target: T3, Peroxisome proliferator-activated receptor alpha (Mus musculus, UniProt P23204); test: Agonist activity at Gal4-fused mouse PPAR-alpha ligand binding domain expressed in CHO-K1 cells assessed as receptor transactivation incubated for 24 to 48 hrs by luciferase reporter gene assay; type: cell-based
T3 sequence (P23204 whole entry): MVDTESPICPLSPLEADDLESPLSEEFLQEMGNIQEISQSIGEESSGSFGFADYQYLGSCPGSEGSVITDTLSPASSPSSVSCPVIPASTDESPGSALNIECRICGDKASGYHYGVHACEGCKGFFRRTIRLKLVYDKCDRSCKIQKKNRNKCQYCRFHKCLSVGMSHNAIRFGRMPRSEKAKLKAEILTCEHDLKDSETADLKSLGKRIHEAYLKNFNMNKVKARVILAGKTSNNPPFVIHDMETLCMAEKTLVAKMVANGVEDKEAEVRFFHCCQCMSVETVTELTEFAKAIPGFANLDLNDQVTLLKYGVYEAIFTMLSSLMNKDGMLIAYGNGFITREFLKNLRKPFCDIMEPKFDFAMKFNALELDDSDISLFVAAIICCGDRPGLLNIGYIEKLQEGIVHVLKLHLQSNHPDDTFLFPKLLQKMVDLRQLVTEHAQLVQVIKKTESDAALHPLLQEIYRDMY

[6] = AUC in rat at 1 mg/kg, po; type: ADME, organism-based; parameters: dose 1 mg/kg, route po; settings: in vivo
Mus musculus [7] = test: Antihypercholesterolemic activity against hApoB100/hCETP-dTg hypercholesterolemic mouse model assessed as serum total cholesterol level at 3 mg/kg, po administered once daily for 8 days; type: functional; settings: time 8 day
[8] = Half life in rat at 0.5 mg/kg, iv; type: ADME, organism-based; settings: in vivo
[9] = target: T4, Peroxisome proliferator-activated receptor delta (Mus musculus) (UniProt P35396); test: Agonist activity at Gal4-fused mouse PPAR-delta ligand binding domain expressed in CHO-K1 cells assessed as receptor transactivation incubated for 24 to 48 hrs by luciferase reporter gene assay relative to control; type: cell-based; settings: time lower 24.0 hrs, time upper […]
T4 sequence (whole entry): T1 sequence (P35396 whole entry)

[10] = Oral bioavailability in rat at 1 mg/kg; type: ADME, organism-based; settings: in vivo
[11] = Cmax in rat at 1 mg/kg, po; type: ADME, organism-based; parameters: dose 1 mg/kg, route po; settings: in vivo
[12] = target: T5, Peroxisome proliferator-activated receptor alpha (Mus musculus) (UniProt P23204); test: Agonist activity at Gal4-fused mouse PPAR-alpha ligand binding domain expressed in CHO-K1 cells assessed as receptor transactivation incubated for 24 to 48 hrs by luciferase reporter gene assay relative to control; type: cell-based; settings: time lower 24.0 hrs, time upper […]
T5 sequence (whole entry): T3 sequence (P23204 whole entry)

[13] = AUC in rat at 0.5 mg/kg, iv; type: ADME, organism-based; parameters: dose 0.5 mg/kg, route iv; settings: in vivo
[14] = Clearance in rat at 0.5 mg/kg, iv; type: ADME, organism-based; settings: in vivo
[15] = target: T6, Peroxisome proliferator-activated receptor delta (Homo sapiens, UniProt Q03181); test: Agonist activity at Gal4-fused human PPAR-delta ligand binding domain expressed in CHO-K1 cells assessed as receptor transactivation incubated for 24 to 48 hrs by luciferase reporter gene assay; type: cell-based
T6 sequence (Q03181 whole entry): T2 sequence (whole entry)

[16] = target: T7, Peroxisome proliferator-activated receptor gamma (Mus musculus, UniProt P37238); test: Agonist activity at Gal4-fused mouse PPAR-gamma ligand binding domain expressed in CHO-K1 cells assessed as receptor transactivation incubated for 24 to 48 hrs by luciferase reporter gene assay; type: cell-based
T7 sequence (P37238 whole entry): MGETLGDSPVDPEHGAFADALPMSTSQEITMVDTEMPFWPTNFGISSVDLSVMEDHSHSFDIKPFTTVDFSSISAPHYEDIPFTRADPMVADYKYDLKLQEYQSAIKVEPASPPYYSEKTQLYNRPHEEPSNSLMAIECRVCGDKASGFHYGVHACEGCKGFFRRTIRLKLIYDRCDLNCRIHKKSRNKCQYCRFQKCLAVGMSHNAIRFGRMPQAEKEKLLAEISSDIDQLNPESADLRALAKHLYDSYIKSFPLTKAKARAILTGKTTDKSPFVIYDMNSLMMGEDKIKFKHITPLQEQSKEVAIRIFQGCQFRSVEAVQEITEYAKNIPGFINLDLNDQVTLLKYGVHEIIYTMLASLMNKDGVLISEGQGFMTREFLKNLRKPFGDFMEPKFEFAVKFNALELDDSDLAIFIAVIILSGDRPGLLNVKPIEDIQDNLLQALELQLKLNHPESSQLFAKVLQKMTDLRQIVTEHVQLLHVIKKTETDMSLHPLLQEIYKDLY

[17] = target: T8, Peroxisome proliferator-activated receptor alpha (Homo sapiens) (UniProt Q07869); test: Agonist activity at Gal4-fused human PPAR-alpha ligand binding domain expressed in CHO-K1 cells assessed as receptor transactivation incubated for 24 to 48 hrs by luciferase reporter gene assay relative to control; type: cell-based; settings: time lower 24.0 hrs, time upper […]
T8 sequence (whole entry): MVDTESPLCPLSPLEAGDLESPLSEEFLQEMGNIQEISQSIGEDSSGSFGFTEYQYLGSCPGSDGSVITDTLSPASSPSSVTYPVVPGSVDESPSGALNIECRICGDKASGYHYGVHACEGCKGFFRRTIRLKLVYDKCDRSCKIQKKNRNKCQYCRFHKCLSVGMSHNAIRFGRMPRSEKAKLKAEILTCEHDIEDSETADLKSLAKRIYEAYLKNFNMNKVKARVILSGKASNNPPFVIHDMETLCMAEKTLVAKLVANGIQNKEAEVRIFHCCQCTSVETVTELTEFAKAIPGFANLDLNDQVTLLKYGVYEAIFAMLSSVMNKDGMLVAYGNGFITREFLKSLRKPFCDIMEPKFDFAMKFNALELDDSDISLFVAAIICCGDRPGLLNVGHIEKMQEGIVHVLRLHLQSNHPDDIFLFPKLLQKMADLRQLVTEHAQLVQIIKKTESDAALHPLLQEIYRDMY

[18] = target: T9, Peroxisome proliferator-activated receptor gamma (Homo sapiens, UniProt P37231); type: cell-based, CHO-K1
T9 sequence (P37231 whole entry): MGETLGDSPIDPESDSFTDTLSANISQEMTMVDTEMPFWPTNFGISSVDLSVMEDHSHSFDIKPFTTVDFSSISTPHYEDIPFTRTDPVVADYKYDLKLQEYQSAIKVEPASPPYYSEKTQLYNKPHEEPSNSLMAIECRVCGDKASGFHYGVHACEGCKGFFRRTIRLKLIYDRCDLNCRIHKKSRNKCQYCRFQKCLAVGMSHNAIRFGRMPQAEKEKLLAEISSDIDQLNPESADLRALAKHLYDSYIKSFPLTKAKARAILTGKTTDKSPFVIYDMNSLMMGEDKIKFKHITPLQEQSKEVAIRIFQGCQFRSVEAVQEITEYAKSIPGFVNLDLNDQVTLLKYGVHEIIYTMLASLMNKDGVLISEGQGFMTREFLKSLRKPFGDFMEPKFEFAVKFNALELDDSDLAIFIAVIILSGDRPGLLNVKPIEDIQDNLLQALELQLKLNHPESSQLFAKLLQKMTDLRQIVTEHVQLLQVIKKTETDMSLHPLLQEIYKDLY

Mus musculus [19] = organism: Mus musculus; test: Selectivity ratio of EC50 for agonist activity at Gal4-fused mouse PPAR-gamma ligand binding domain expressed in CHO-K1 cells to EC50 for agonist activity at Gal4-fused mouse PPAR-delta ligand binding domain expressed in CHO-K1 cells; type: cell-based
Mus musculus [20] = organism: Mus musculus; test: Selectivity ratio of EC50 for agonist activity at Gal4-fused mouse PPAR-alpha ligand binding domain expressed in CHO-K1 cells to EC50 for agonist activity at Gal4-fused mouse PPAR-delta ligand binding domain expressed in CHO-K1 cells; type: cell-based
Homo sapiens = organism: Homo sapiens; test: Selectivity ratio of EC50 for agonist activity at Gal4-fused human PPAR-alpha ligand binding domain expressed in CHO-K1 cells to EC50 for agonist activity at Gal4-fused human PPAR-delta ligand binding domain expressed in CHO-K1 cells; type: cell-based

Compound | EC50 [2] [nM] | Emax [3] [%] | EC50 [5] [nM] | AUC [6] [ng·h/mL] | half-life [8] [h] | Emax [9] [%] | bioavailability [10] [%] | Cmax [11] [ng/mL] | Emax [12] [%] | AUC [13] [ng·h/mL] | clearance [14] [mL/min/kg] | EC50 [15] [nM] | EC50 [16] [nM] | Emax [17] [%] | Activity (Mus musculus [1]) [%] | Activity (Mus musculus [4]) [%] | Activity (Mus musculus [7]) [%] | further results
Cc1cc(CC(=O)O)cc(CN2CCN(c3nc4ccc(C(F)(F)F)cc4s3)[C@@H](C(C)C)C2)c1 | 12 | 18.6 | 2000 | 45900 | 9.5 | 25 | 85.8 | 2050 | 10.3 | 26700 | 0.31 | 4.1 | – | – | 188 | 56 | 72 | –
CC(C)C[C@H]1CN(c2nc3ccc(Cl)cc3s2)CCC1CCOc1cc(CC(=O)O)ccc1Cl (some centres undefined) | 61 | 23.2 | – | – | – | 28.3 | – | – | 4.6 | – | – | 17 | 660 | 3.1 | – | – | – | EC50 [18]: 1100 nM; Ratio EC50 (Mus musculus [19]): 11
Cc1cc(CC(=O)O)cc(CN2CCN(c3nc4ccc(C(F)(F)F)cc4s3)[C@@H](CC(C)C)C2)c1 | 79 | 13.6 | 5800 | – | – | 17.9 | – | – | 4.5 | – | – | 19 | – | 1.4 | – | – | – | EC50 [18]: 1500 nM; Ratio EC50 (Mus musculus [20]): 73
Cc1ccc(CC(=O)O)cc1OCCC1CCN(c2nc3ccc(Cl)cc3s2)CC1 | – | 16.2 | 1130 | – | – | 20 | – | – | 15.5 | – | – | – | – | 8 | – | – | – | Ratio EC50 (Homo sapiens): 39; Ratio EC50 (Mus musculus [20]): 16; Ratio EC50 (Mus musculus [19]): 10

The next lines start with results.

EC50 [2] [nM] | Emax [3] [%] | EC50 [5] [nM] | AUC [6] [ng·h/mL] | half-life [8] [h] | Emax [9] [%] | bioavailability [10] [%] | Cmax [11] [ng/mL] | Emax [12] [%] | AUC [13] [ng·h/mL] | clearance [14] [mL/min/kg] | EC50 [15] [nM] | EC50 [16] [nM] | Emax [17] [%] | Compound | Activity (Mus musculus [1]) [%] | Activity (Mus musculus [4]) [%] | Activity (Mus musculus [7]) [%] | further results
6.1 | – | 2500 | 151 | 2.7 | 31.7 | 18.9 | 10 | 8 | 399 | 21.5 | – | 240 | – | CC[C@H]1CN(c2nc3ccc(C(F)(F)F)cc3s2)CCN1CCOc1cc(CC(=O)O)ccc1Cl | 156 | 82 | 94 | –
6.9 | 17.5 | – | 7140 | 6.7 | 24.8 | 62.9 | 895 | 1.4 | 5680 | 1.47 | 4.3 | – | 1.6 | Cc1cc(CC(=O)O)cc(CN2CCN(c3nc4ccc(C(F)(F)F)cc4s3)[C@H](CC(C)C)C2)c1 | 145 | 75 | 83 | –
6.9 | – | 2700 | 101 | 1.4 | 34 | 26.4 | 11 | 7.2 | 190 | 45.6 | – | 240 | – | C[C@H]1CN(c2nc3ccc(C(F)(F)F)cc3s2)CCN1CCOc1cc(CC(=O)O)ccc1Cl | 113 | 80 | 76 | –
